# Measurements reported in US20060228776A1, “PINK-1 promoter” (NEUROLOGIX, INC., priority 2004, published 2006).
# Legend:
# PINK1 promoter = PINK1 promoter analysis, Dual Glo Luciferase Assay in transfected HEK293 cells; type: cell-based, human; settings: promoter alone vs no promoter (pGL2-basic) or SV40 promoter (pGL2-control); HEK293, 48 hrs; p<0.05
# Description: HEK293 cells were transfected with PINK1pr2220 and various controls for 48 hrs. Promoter activity was determined using Dual Glo Luciferase Assay system (Promega) and normalized against renilla luciferase.
# In FIG. 3(A) the results are represented as the level of firefly luciferase activity driven by the PINK1 promoter normalized against renilla luciferase activity from a second plasmid used to control for transfection variability. Each experiment was replicated in triplicate, and the entire study was replicated on at least two separate occasions. […] Co-transfection with PTEN induced PINK1 promoter activity from 65% to 5 fold in various replicate experiments compared with PINK1 alone (**p<0.05; two-tailed t-test), while a PTEN point-mutant which lacks lipid phosphatase activity (1 mPTEN) had no effect.
# Data is the result of triplicate experiments analyzed relative to promoter activity of PINK1pr2220 alone (*p<0.05; two-tailed t-test).
# All plasmids were kept at constant amounts and ratios, with empty plasmid replacing constructs not used for individual studies. Data is the result of triplicate experiments analyzed relative to promoter activity of PINK1pr2220 alone (*p<0.05; two-tailed t-test).
# [1] = test system: human neuroblastoma SH-SY5Y; assay: Cell viability, CellTiter 96 Aqueous One Solution Cell Proliferation Assay; type: cell-based
# Description: (§1) SH-SY5Y cells were maintained in Dulbecco's modified medium (DMEM) supplemented with 10% FBS, 100 IU/mL penicillin and […] streptomycin at 37 °C under 5% CO2. Toxins (Sigma) were freshly prepared and added to the cultures and incubated for various lengths of time.
# To measure cell viability and apoptosis CellTiter 96 Aqueous One Solution Cell Proliferation Assay (Promega) and propidium iodide (Sigma) were used, respectively.
# PTEN = assay: Western blot of p-PTEN/total PTEN ratio in toxin-treated SH-SY5Y cells; type: cell-based, human
# Description: as §1
# (§2) Blots were incubated with antibodies against PTEN, Phospho-PTEN, and Caspase-3 (Cell Signaling) followed by secondary antibodies and enhanced chemiluminescent detection (Amersham Biosciences).
# PTEN and phosphorylated PTEN (p-PTEN) were determined by using western blot analysis. FIG. 6C show PTEN activity was determined by comparing the ratio of p-PTEN/total PTEN. A decrease in p-PTEN/total PTEN is correlated with higher PTEN activity. Results were analyzed by Image J software and p-PTEN/total PTEN results were shown graphically. […] Substantia nigra pars compacta were dissected and harvested for western blot analysis as previously described.
# Caspase-3 = assay: Western blot of Caspase-3 active metabolite in SH-SY5Y cells; type: cell-based, human; settings: high (mM) doses of MPP+, 24 hrs
# Description: as §1, §2
compound,measurement,setting,value
"PINK1 promoter: 2220bp human DNA sequence upstream of the PINK1 transcriptional start site, driving firefly luciferase",PINK1 promoter activity (firefly luciferase normalized against renilla luciferase),PINK1 promoter,significant promoter activity
"NCCc1cc(O)c(O)cc1O [6-OHDA, 6-hydroxydopamine]",cell viability,[1]; 6-OHDA,reduced cell viability
same,p-PTEN/total PTEN ratio,PTEN; n=4,lower p-PTEN/total PTEN ratio
C[n+]1ccc(-c2ccccc2)cc1 [MPP+],cleavage of Caspase-3 active metabolites,Caspase-3,not cleaved
same,cell viability,[1]; MPP+ 24 hr treatment,reduced cell viability
same,p-PTEN/total PTEN ratio,"PTEN; 24 hrs, escalating high doses of MPP+ (mM)",No change
same,p-PTEN/total PTEN ratio,"PTEN; low dose MPP+ (100 μM), various time points",reduction
